In US20210238257A1, “De Novo Formation of the Biliary System by Hepatocyte Transdifferentiation” (THE REGENTS OF THE UNIVERSITY OF CALIFORNIA, priority 2018, published 2021):

Test system: hepatocytes lacking RBPJ and HNF6
Assay: In vitro conversion assay: 3D culture of hepatocyte spheroids in collagen gels
Format: cell-based, mouse
Conditions: 10 μM SB-431542 vs vehicle (DMSO)
Experimental: Genomic DNA was isolated from cells using QIAamp DNA Micro Kit or DNeasy Blood & Tissue Kit (Qiagen). RNA was extracted using Trizol Reagent (Thermo Fisher Scientific) and purified by isopropanol precipitation (cells in collagen gel) or purified using RNAeasy Mini Kit (Qiagen) (liver tissue). Reverse transcription was performed using qScript cDNA Supermix (Quanta Biosciences). qPCR was performed using SYBR green reagent (Thermo Fisher Scientific) in a ViiA 7 system (Thermo Fisher Scientific). Reactions were performed in triplicate, and expression was normalized to an Rbpj (genotyping) or Gapdh (Glyceraldehyde-3-phosphate Dehydrogenase; gene expression) reference and quantified using the ΔΔCt method.
In vitro 3D culture of hepatocytes to induce biliary conversion was carried out as previously reported^21 with the following modifications. Hepatocytes were isolated from 8-10-week-old Rbpj^f/f;Hnf6^f/f mice injected with 1×10^12 vgs of AAV8-Ttr-Cre 2 weeks prior to delete RBPJ and HNF6. Hepatocytes were isolated by 2-step collagenase perfusion followed by purification through a Percoll gradient, all in the absence of serum. Cells were grown on Primaria plates for 6 days to form spheroids. Spheroids were cultured in collagen gels (Cultrex Rat Collagen I, Lower Viscosity, Trevigen) in the presence of 10 μM SB-431542 (Selleckchem) or vehicle (DMSO). The medium was changed every other day.

## NC(=O)c1ccc(-c2nc(-c3ccc4c(c3)OCO4)c(-c3ccccn3)[nH]2)cc1 [SB-431542]
  biliary differentiation and morphogenesis of hepatocytes: blocks biliary differentiation and morphogenesis
